Measured values: patent US9447100B2, “Substituted pyrazolo[1,5-A] pyrimidines as calcium receptor modulating agents” (Takeda Pharmaceutical Company Limited, priority 2002, dated 2016)
Counter-ions that a name gives are not always drawn.

CCC(CC)(NC(=O)c1c(C)nn2c1NC(c1ccc(F)cc1)CC2(C)C)c1ccc(C)cc1 (stereo not shown) (as salt: HCl) [Example 971, N-(1-ethyl-1-(4-methylphenyl)propyl)-5-(4-fluorophenyl)-2,7,7-trimethyl-4,5,6,7-tetrahydropyrazolo[1,5-a]pyrimidine-3-carboxamide]
melting point: 166 to 169 °C

CCC(CC)(NC(=O)c1c(C)nn2c1N[C@@H](c1ccccc1)CC2(C)C)c1ccc(N(C)C)cc1 (as salt: HCl) [Example 1071, (5R)-N-(1-(4-(dimethylamino)phenyl)-1-ethylpropyl)-2,7,7-trimethyl-5-phenyl-4,5,6,7-tetrahydropyrazolo[1,5-a]pyrimidine-3-carboxamide]
melting point: 141 to 142 °C

CCC1(CC)CC(c2ccccc2)Nc2c(C(=O)O)cnn21 (stereo not shown) [Example 37, 7,7-diethyl-5-phenyl-4,5,6,7-tetrahydropyrazolo[1,5-a]pyrimidine-3-carboxylic acid]
melting point: 158 to 160 °C

CCC(CC)(NC(=O)c1c(C)nn2c1N[C@@H](c1ccccc1)CC2(C)C)c1cc(C)n(-c2ccccc2)n1 (as salt: HCl) [Example 1062, (5R)-N-(1-ethyl-1-(5-methyl-1-phenyl-1H-pyrazol-3-yl)propyl)-2,7,7-trimethyl-5-phenyl-4,5,6,7-tetrahydropyrazolo[1,5-a]pyrimidine-3-carboxamide]
melting point: 194 to 195 °C

O=C(c1cnn2c1NC(c1ccccc1)CC2C(F)(F)F)N1CCc2nn(-c3ccc(Cl)cc3)cc2C1 (stereo not shown) [Example 275, 2-(4-chlorophenyl)-5-((5-phenyl-7-(trifluoromethyl)-4,5,6,7-tetrahydropyrazolo[1,5-a]pyrimidin-3-yl)carbonyl)-4,5,6,7-tetrahydro-2H-pyrazolo[4,3-c]pyridine]
melting point: 183 to 184 °C

CCC(CC)(Cc1ccc(C)cc1)NC(=O)c1cnn2c1NC(c1ccccc1)CC2(C)C (stereo not shown) [Example 703, N-(1-ethyl-1-(4-methylbenzyl)propyl)-7,7-dimethyl-5-phenyl-4,5,6,7-tetrahydropyrazolo[1,5-a]pyrimidine-3-carboxamide]
melting point: 150 to 151 °C

CCC(CC)(NC(=O)c1c(C)nn2c1N[C@@H](c1ccccc1)CC2(C)C)c1ccc(Cl)cc1 [Example 1042, (5R)-N-(1-(4-chlorophenyl)-1-ethylpropyl)-2,7,7-trimethyl-5-phenyl-4,5,6,7-tetrahydropyrazolo[1,5-a]pyrimidine-3-carboxamide]
melting point: 128 to 129 °C

CC(NC(=O)c1cnn2c1NC(c1ccc3ccccc3c1)CC2C(F)(F)F)C1C2CC3CC(C2)CC1C3 (stereo not shown) [Example 91, N-(1-(2-adamantyl)ethyl)-5-(2-naphthyl)-7-(trifluoromethyl)-4,5,6,7-tetrahydropyrazolo[1,5-a]pyrimidine-3-carboxamide]
melting point: 94 to 95 °C

Cc1nn2c(c1C(=O)O)NC(c1ccccc1F)CC2(C)C (single isomer, unassigned; (+)) [Example 1024, (+)-5-(2-fluorophenyl)-2,7,7-trimethyl-4,5,6,7-tetrahydropyrazolo[1,5-a]pyrimidine-3-carboxylic acid]
melting point: 150 to 151 °C

CCCC(CC)(CC)NC(=O)c1c(C)nn2c1NC(c1ccccc1)CC2(C)C (stereo not shown) (as salt: HCl) [Example 838, N-(1,1-diethylbutyl)-2,7,7-trimethyl-5-phenyl-4,5,6,7-tetrahydropyrazolo[1,5-a]pyrimidine-3-carboxamide]
melting point: 176 to 177 °C

O=C(NCC(=O)c1cccc2ccccc12)c1cnn2c1N[C@H](c1ccccc1)C[C@@H]2C(F)(F)F (stereo in doubt) [Example 286, N-(2-(1-naphthyl)-2-oxoethyl)-5-phenyl-7-(trifluoromethyl)-4,5,6,7-tetrahydropyrazolo[1,5-a]pyrimidine-3-carboxamide]
melting point: 141 to 142 °C

CC(C)C(NC(=O)c1cnn2c1NC(c1ccccc1)CC2(C)C)C(C)C (stereo not shown) [Example 621, N-(1-isopropyl-2-methylpropyl)-7,7-dimethyl-5-phenyl-4,5,6,7-tetrahydropyrazolo[1,5-a]pyrimidine-3-carboxamide]
melting point: 168 to 169 °C

CCOC(=O)c1cnn2c1NC(c1ccco1)CC2C(F)(F)F (stereo not shown) [Example 14, ethyl 5-(2-furyl)-7-(trifluoromethyl)-4,5,6,7-tetrahydropyrazolo[1,5-a]pyrimidine-3-carboxylate]
melting point: 86 °C

CCCC(CC)(CC)NC(=O)c1cnn2c1NC(c1ccccc1)CC2(C)C (stereo not shown) [Example 646, N-(1,1-diethylbutyl)-7,7-dimethyl-5-phenyl-4,5,6,7-tetrahydropyrazolo[1,5-a]pyrimidine-3-carboxamide]
melting point: 76 to 77 °C

CCC1(NC(=O)c2cnn3c2NC(c2ccccc2)CC3(C)C)CCSCC1 (stereo not shown) [Example 575, N-(4-ethyltetrahydro-2H-thiopyran-4-yl)-7,7-dimethyl-5-phenyl-4,5,6,7-tetrahydropyrazolo[1,5-a]pyrimidine-3-carboxamide]
melting point: 97 to 98 °C

CCC(CC)(NC(=O)c1c(C)nn2c1NC(c1ccccc1)CC2(C)C)c1ccc(CO)cc1 (stereo not shown) [Example 955, N-(1-ethyl-1-(4-(hydroxy-methyl)phenyl)propyl)-2,7,7-trimethyl-5-phenyl-4,5,6,7-tetrahydropyrazolo[1,5-a]pyrimidine-3-carboxamide]
melting point: 146 to 147 °C

CCC(CC)(NC(=O)c1cnn2c1N(Cc1ccccc1)C(c1ccccc1)CC2(C)C)c1ccc(C)cc1 (stereo not shown) [Example 765, 4-benzyl-N-(1-ethyl-1-(4-methylphenyl)propyl)-7,7-dimethyl-5-phenyl-4,5,6,7-tetrahydropyrazolo[1,5-a]pyrimidine-3-carboxamide]
melting point: 142 to 143 °C

CCOC(=O)CCc1ccc(C(CC)(CC)NC(=O)c2cnn3c2NC(c2ccccc2)CC3(C)C)cc1 (stereo not shown) [Example 759, ethyl 3-(4-(1-(((7,7-dimethyl-5-phenyl-4,5,6,7-tetrahydropyrazolo[1,5-a]pyrimidin-3-yl)carbonyl)amino)-1-ethylpropyl)phenyl)propanoate]
melting point: 135 to 136 °C

CCC(CC)(NC(=O)c1cnn2c1NC(c1ccccc1)CC2(C)C)c1ccc(-c2ccco2)cc1 (stereo not shown) [Example 584, N-(1-ethyl-1-(4-(2-furyl)phenyl)propyl)-7,7-dimethyl-5-phenyl-4,5,6,7-tetrahydropyrazolo[1,5-a]pyrimidine-3-carboxamide]
melting point: 167 to 168 °C

CCC(CC)(NC(=O)c1cnn2c1NC(c1ccccc1O)CC2(C)C)c1ccc(C(F)(F)F)cc1 (stereo not shown) [Example 629, N-(1-ethyl-1-(4-(trifluoro-methyl)phenyl)propyl)-5-(2-hydroxyphenyl)-7,7-dimethyl-4,5,6,7-tetrahydropyrazolo[1,5-a]pyrimidine-3-carboxamide]
melting point: 122 to 124 °C

CCC(CC)(c1ccc(C)cc1)c1nnc(-c2c(C)nn3c2N[C@@H](c2ccccc2)CC3(C)C)s1 [Example 1143, (5R)-3-(5-(1-ethyl-1-(4-methylphenyl)propyl)-1,3,4-thiadiazol-2-yl)-2,7,7-trimethyl-5-phenyl-4,5,6,7-tetrahydropyrazolo[1,5-a]pyrimidine]
melting point: 132 to 134 °C

CCC(CC)(NC(=O)c1cnn2c1NC(c1ccccc1)CC2(C)C)c1ccc(C(=O)O)cc1 (stereo not shown) [Example 734, 4-(1-(((7,7-dimethyl-5-phenyl-4,5,6,7-tetrahydropyrazolo[1,5-a]pyrimidin-3-yl)carbonyl)amino)-1-ethylpropyl)benzoic acid]
melting point: 257 to 258 °C

COc1ccc(C(NC(=O)c2cnn3c2NC(c2ccccc2)CC3(C)C)c2ccc(OC)cc2)cc1 (stereo not shown) [Example 407, N-(bis(4-methoxyphenyl)methyl)-7,7-dimethyl-5-phenyl-4,5,6,7-tetrahydropyrazolo[1,5-a]pyrimidine-3-carboxamide]
melting point: 184 to 185 °C

O=C(NCc1ccc(-c2csnn2)cc1)c1cnn2c1NC(c1ccccc1)CC2C(F)(F)F (stereo not shown) [Example 278, 5-phenyl-N-(4-(1,2,3-thiadiazol-4-yl)benzyl)-7-(trifluoromethyl)-4,5,6,7-tetrahydropyrazolo[1,5-a]pyrimidine-3-carboxamide]
melting point: 205 to 206 °C

COc1ccc(C2CC(C(F)(F)F)n3ncc(C(=O)NC45CC6CC(CC(C6)C4)C5)c3N2)cc1 (stereo not shown) [Example 202, N-(1-adamantyl)-5-(4-methoxyphenyl)-7-(trifluoromethyl)-4,5,6,7-tetrahydropyrazolo[1,5-a]pyrimidine-3-carboxamide]
melting point: 241 to 243 °C

Cc1ccc(-n2cc3c(n2)CCN(C(=O)c2cnn4c2NC(c2ccccc2)CC4C(F)(F)F)C3)cc1 (stereo not shown) [Example 276, 2-(4-methylphenyl)-5-((5-phenyl-7-(trifluoromethyl)-4,5,6,7-tetrahydropyrazolo[1,5-a]pyrimidin-3-yl)carbonyl)-4,5,6,7-tetrahydro-2H-pyrazolo[4,3-c]pyridine]
melting point: 167 to 168 °C

CCC(CC)(NC(=O)c1cnn2c1NC(c1ccccc1)CC2C(F)(F)F)c1ccccc1 (stereo not shown) [Example 396, N-(1-ethyl-1-phenylpropyl)-5-phenyl-7-(trifluoromethyl)-4,5,6,7-tetrahydropyrazolo[1,5-a]pyrimidine-3-carboxamide]
melting point: 165 to 166 °C

CCC(C)(CC)NC(=O)c1cnn2c1NC(c1ccccc1)CC2(C)C (stereo not shown) [Example 618, N-(1-ethyl-1-methylpropyl)-7,7-dimethyl-5-phenyl-4,5,6,7-tetrahydropyrazolo[1,5-a]pyrimidine-3-carboxamide]
melting point: 88 to 89 °C

CCC(CC)(NC(=O)c1cnn2c1NC(c1ccccc1)CC2(C)C)c1ccc(C(C)(C)C)cc1 (stereo not shown) [Example 417, N-(1-(4-tert-butylphenyl)-1-ethylpropyl)-7,7-dimethyl-5-phenyl-4,5,6,7-tetrahydropyrazolo[1,5-a]pyrimidine-3-carboxamide]
melting point: 196 to 197 °C

CCCC(=O)Oc1ccc(C(CC)(CC)NC(=O)c2cnn3c2NC(c2ccccc2)CC3(C)C)cc1 (stereo not shown) [Example 760, 4-(1-(((7,7-dimethyl-5-phenyl-4,5,6,7-tetrahydropyrazolo[1,5-a]pyrimidin-3-yl)carbonyl)amino)-1-ethylpropyl)phenyl butyrate]
melting point: 148 to 149 °C

O=C(O)c1cnn2c1NC(c1ccccc1Cl)CC2C(F)(F)F (stereo not shown) [Example 32, 5-(2-chlorophenyl)-7-(trifluoromethyl)-4,5,6,7-tetrahydropyrazolo[1,5-a]pyrimidine-3-carboxylic acid]
melting point: 177 to 179 °C
